Results as given in ChEMBL document CHEMBL5728757, “Cyano substituted heteroarylpyrimidinone derivative, preparation method and use thereof” (2021).
pIC50: −log10 of the molar value.

Biological target: Acetyl-CoA carboxylase 1 (Homo sapiens, UniProt Q13085)
Experiment: etermination of IC50 of Inhibition of Enzymatic Activity of ACC1 and ACC2 by the Compound of the Present Disclosure: The degree of inhibition of the enzymatic activity of recombinant human ACC1, ACC2 proteins under in-vitro conditions by the preferred compounds of the present disclosure is determined by the following method.The principle of the method was based on the reaction of ACC protein-catalyzed acetyl-CoA to form malonyl-CoA. ATP was consumed during this reaction and ADP was produced. The produced ADP was reconverted into ATP by using ADP-Glo™ Kinase Kit from Promega. This part of ATP reacted with the luciferase-fluorescence in the kit, and generated chemiluminescent signals. Thus, by measuring the intensity of chemiluminescent signal, the amount of ADP produced in the catalytic reaction was reflected, thereby indirectly determining the enzymatic activity of ACC protein and the effect of the tested compound on the enzymatic activity. […]

A pIC50 of 7.88 was found for CCOc1ccc(F)cc1[C@H](Cn1c(=O)n(C(C)(C)C(N)=O)c(=O)c2c(C)c(C#N)sc21)OC1CCOCC1 in this work.
